Read-outs that look alike come from different tables or passages of the source.
What was measured:
Assay in all cases: 3H-TdR (3H-thymidine) incorporation assay at 72 hr
H-460 = format: cell-based, Human; conditions: 3H-TdR incorporation at 72 hr
MCF-7 = format: cell-based, Human; conditions: 3H-TdR incorporation at 72 hr
CEM/dCK- = format: cell-based; conditions: for IC50: deoxycytidine kinase-deficient CCRF-CEM; for Factor* (Resistance Factor = Ratio of dCK- on Wild-type CCRF-CEM): ratio of IC50 CEM/dCK- to CCRF-CEM, 24 h
Description: (§1) Table of IC50 Values (μM) for Controls
(§2) Exposition of 24 hr to drug, wash, incubated for another 48 hr (total of 72 hr assay)
(§3) (3H-Thymidine Incorporation Assay)

CCRF-CEM = format: cell-based; conditions: 3H-TdR incorporation at 72 hr
Description: as §1, §2, §3

SF-268 = format: cell-based, Human; conditions: 3H-TdR incorporation at 72 hr
[1] = Homo sapiens, NCI-H460, read-out: IC50 H-460 24 h, 24 h drug exposure, wash, another 48 hr
[2] = Homo sapiens, MCF7, read-out: IC50 MCF-7 24 h, 24 h drug exposure, wash, another 48 hr
[3] = Homo sapiens, CCRF-CEM, read-out: IC50 CEM/dCK- 24 h, 24 h drug exposure, wash, another 48 hr
[4] = Homo sapiens, CCRF-CEM, read-out: IC50 CCRF-CEM 24 h, 24 h drug exposure, wash, another 48 hr
[5] = Homo sapiens, SF-268, read-out: IC50 SF-268 24 h, 24 h drug exposure, wash, another 48 hr
[6] = read-out: IC50 H-460 24 h, 24 h drug exposure, wash, another 48 hr
[7] = read-out: IC50 CCRF-CEM 24 h, 24 h drug exposure, wash, another 48 hr
[8] = read-out: IC50 SF-268 24 h, 24 h drug exposure, wash, another 48 hr

Structure (SMILES)	IC50 (H-460; [1]) [nM]	IC50 (MCF-7; [2]) [nM]	IC50 (CEM/dCK-; [3]) [nM]	Factor* (Resistance Factor = Ratio of dCK- on Wild-type CCRF-CEM) (CEM/dCK-)	IC50 (CCRF-CEM; [4]) [nM]	IC50 (SF-268; [5]) [nM]	IC50 (H-460; read-out: IC50 H-460 24 h, 24 h drug exposure, wash, another 48 hr, bis trifluoroacetate salt) [nM]	IC50 (MCF-7; read-out: IC50 MCF-7 24 h, 24 h drug exposure, wash, another 48 hr, bis trifluoroacetate salt) [nM]	IC50 (H-460; [6]) [nM]	IC50 (CCRF-CEM; [7]) [nM]	IC50 (SF-268; [8]) [nM]	IC50 (CEM/dCK-; read-out: IC50 CEM/dCK- 24 h, 24 h drug exposure, wash, another 48 hr) [nM]
CCC(C)(C)OC(C)OC[C@H]1OC[C@@H](n2ccc(N)nc2=O)O1 (mixture of isomers) [Compound 117, 4-AMINO-1-{2-[1-(1,1- DIMETHYL-PROPOXY)- ETHOXYMETHYL]- [1,3]DIOXOLAN-4-YL}-1H- PYRIMIDIN-2-ONE]	460	460	89000	494	180	680						
Nc1ccn([C@@H]2CO[C@H](COC3CCCCO3)O2)c(=O)n1 (stereo in doubt) [Compound 41, 4-AMINO-1-[2- (TETRAHYDRO-PYRAN-2- YLOXYMETHYL)- [1,3]DIOXOLAN-4-YL]-1H- PYRIMIDIN-2-ONE]	40000	91000	> 100000	5	21000	> 100000						
Nc1cc[n+]([C@@H]2CO[C@H](COC(c3ccccc3)(c3ccccc3)c3ccccc3)O2)c(=O)[nH]1 (stereo in doubt) [Compound 53, 4-AMINO-1-(2- TRITYLOXYMETHYL- [1,3]DIOXOLAN-4-YL)-1H- PYRIMIDIN-2-ONE]	8900	10000	37000	19	2000	10000						
Nc1ccn([C@@H]2COC(COCOCc3ccccc3)O2)c(=O)n1 (stereo in doubt) [Compound 56, 4-AMINO-1-(2- BENZYLOXYMETHOXYMETHYL- [1,3]DIOXOLAN-4-YL)-1H- PYRIMIDIN-2-ONE]	7000	2000	> 100000	63	1600	25000						
Nc1ccn([C@@H]2CO[C@H](COC(=O)CCCCCNCc3ccccc3)O2)c(=O)n1.O=C(O)C(F)(F)F.O=C(O)C(F)(F)F (stereo in doubt) [Compound 83, 6-Benzylamino-hexanoic acid 4-(4-amino-2-oxo-2H-pyrimidin-1-yl)-[1,3]dioxolan-2-ylmethyl ester bis trifluoroacetate salt]			> 100000	4,545	22	260	54	83				
CCOC(OCC)OC[C@H]1OC[C@@H](n2ccc(N)nc2=O)O1 [Compound 39, 4-AMINO-1-(2- DIETHOXYMETHOXYMETHYL- [1,3]DIOXOLAN-4-YL)-1H- PYRIMIDIN-2-ONE]	160		> 100000		47	320			120	62	390	
Nc1ccn([C@@H]2CO[C@H](COC(=O)Oc3ccccc3)O2)c(=O)n1 [Compound 42, CARBONIC ACID 4-(4- AMINO-2-OXO-2H- PYRIMIDIN-1-YL)- [1,3]DIOXOLAN-2- YLMETHYL ESTER PHENYL ESTER]	10		82000		2.2	22			7	2.3	26	> 100000
Nc1ccn([C@@H]2CO[C@H](COC(=O)OCc3ccccc3)O2)c(=O)n1 [Compound 57, CARBONIC ACID 4-(4- AMINO-2-OXO-2H- PYRIMIDIN-1-YL)- [1,3]DIOXOLAN-2- YLMETHYL ESTER BENZYL ESTER]		19	32000		4.8	47						
CC(C)OC(=O)OC[C@H]1OC[C@@H](n2ccc(N)nc2=O)O1.O=C(O)C(F)(F)F [Compound 67, CARBONIC ACID 4-(4- AMINO-2-OXO-2H- PYRIMIDIN-1-YL)- [1,3]DIOXOLAN-2- YLMETHYL ESTER ISOPROPYL ESTER TRIFLUOROACETATE SALT]	82		> 100000	556	180	400						
